Source: article PMC12094199 (Science Advances, 2025)

Experiments:
Cell survival assay = format: cell-based; conditions: human, HEK-293 cells
U87MG cells = test: Cell survival assay; format: cell-based; conditions: Homo sapiens, U-87 MG, 48 h, read-out: IC50 (cytotoxicity)

What does the source list for `CC(=O)O[C@H]1C(=O)[C@@]2(C)[C@H]([C@H](OC(=O)c3ccccc3)[C@]3(O)C[C@H](OC(=O)[C@H](O)[C@@H](NC(=O)c4ccccc4)c4ccccc4)C(C)=C1C3(C)C)[C@]1(OC(C)=O)CO[C@@H]1C[C@@H]2O` [PTX, paclitaxel]?
IC50 at 48 h (Cell survival assay): 27.8 ± 3.3 nM; IC50 (U87MG cells): 218 ± 54.2 nM
